Reference: US20160263094A1, “Pantoprazole Sodium Composition Lyophilized Powder for Injection” (priority 2013, published 2016)

Tested on: gastric ulcer
Test: Glacial acetic acid-induced gastric ulcer in SD rats
Assay type: in vivo
Conditions: 1.3 mg/kg, control group 2 continuous administration 15 d, treatment groups 10 d, three times a day
Description: 50 SD rats are used, made to starve for 24 h before testing. The abdominal cavity is opened under ether anesthesia, a glass tube with the inner diameter of 5 mm and the length of 30 mm is vertically placed on the surface of serosa of the gastric body and 0.2 ml of glacial acetic acid is added into the tube cavity. The glacial acetic acid is dipped out with a cotton swab after 5 min, and the surgical incision is sutured. Normal diet is permitted after the surgery, and animals are randomly divided into 5 groups on the next day: a control group 1 (distilled water), a control group 2 (pantoprazole sodium for injection), with continuous administration for 15 d, a treatment group 1 (embodiment 1), a treatment group 2 (embodiment 2) and a treatment group 3 (embodiment 3); and continuous administration is performed for 10 d, three times a day. The stomach is taken out by anatomy, fixed with formaldehyde, cut open along the greater curvature of the stomach and flat spread on a glass plate, and the transverse diameter d1 and the vertical diameter d2 of an ulcer are measured. The area of the ulcer S (mm2) is calculated according to a formula S=π×(d1/2)×(d2/2) to serve as an ulcer index, and ulcer healing rate and ulcer inhibition rate are calculated.

With `COc1ccnc(C[S+]([O-])c2nc3cc(OC(F)F)ccc3[n-]2)c1OC.[Na+]` (stereo not shown) [Control group 2, 5-difluoromethoxy-2-[(3,4-dimethoxy-2-pyridinyl)methyl]sulfinyl-1H-benzimidazole] the Healing rate was 90%, the “Number of healed animals” value was 9 and the “Ulcer index (x ± s), ulcer area S=π×(d1/2)×(d2/2)” value was 6.3 ± 6.1 mm2. For the same compound, the Ulcer inhibition rate was 65.1%.
